Test results from EP0184331A2 (priority 1984, dated 1986).
Read-outs that look alike come from different tables or passages of the source.

Key:
[1] = test system: leukemic cells obtained by infection of mice with Graffi's leukemia virus; conditions: cited from earlier work
[2] = test system: Graffi virus; conditions: cited from earlier work
[3] = test system: Vesicular stomatitis virus (VSV); conditions: cited from earlier work; for effectiveness in photoinactivation compared with TMP: 0.7 mW/cm^2 long-wave UV light; for light dose response in the inactivation of VSV: 20-30 µg/ml
[4] = test system: Moloney sarcoma virus; conditions: cited from earlier work
[5] = test system: Western equine encephalitis virus (WEE, an RNA virus); conditions: cited from earlier work
[6] = test system: herpes simplex virus (a DNA virus); conditions: cited from earlier work
[7] = test system: reovirus (a double-stranded RNA virus); conditions: cited from earlier work
[8] = test system: vesicular stomatitis virus; conditions: approximately 5 minutes irradiation at 9 mW/cm^2, 8.2 µg/ml AMT; cited from earlier work
[9] = test system: influenza virus; conditions: cited from earlier work
[10] = test system: Herpes virus; conditions: cited from earlier work; for photoinactivation: in 0.9 minutes, 10 ug/ml, 1.2 mW/cm^2 long-wave ultraviolet light
[11] = test system: cell-free influenza virus; conditions: 1.2 mW/cm^2, cited from earlier work
[12] = test system: Intracellular influenza virus; conditions: 10 µg/ml of AMT, 1.2 mW/cm^2; cited from earlier work
[13] = test system: tobacco mosaic virus (TMV); conditions: 100 mW/cm^2 long-wave ultraviolet light; AMT and HMT indistinguishable; cited from earlier work
[14] = test system: vesicular stomatitis virus; conditions: 9 mW/cm^2 long-wave ultraviolet light; sufficient for inactivation; cited from earlier work
[15] = test system: Rous sarcoma virus; conditions: cited from earlier work
[16] = cited from earlier work
[17] = test system: HTLV-III; type: cell-based, Human Tumor Leukemia Virus (HTLV) III
[18] = test system: pseudorabies; conditions: cited from earlier work
[19] = test system: canine hepatitis virus; conditions: cited from earlier work
[20] = test system: fowl pox virus; conditions: cited from earlier work
[21] = test system: NewCastle disease virus; conditions: cited from earlier work
[22] = test system: foot-and-mouth disease virus; conditions: cited from earlier work
[23] = test system: Teschen disease virus; conditions: cited from earlier work
[24] = 30 minutes at 11.5 mW/cm^2 ultraviolet light, 10 µg/ml
[25] = 30 minutes at 11.5 mW/cm^2 ultraviolet light (365 mm), 10 µg/ml
[26] = at higher psoralen derivative concentrations
[27] = on a molar basis, within TMP solubility range

SMILES: Cc1coc2c(C)c3oc(=O)cc(C)c3cc12 [4,4',8-trimethylpsoralen]
- effect on leukemic cells (ability to replicate or induce leukemia in adult mice) [1, 24]: killed the cells
- properties of the [intracellular] Graffi virus [2, 25]: remained unchanged

SMILES: Cc1c2occc2cc2ccc(=O)oc12 [8-methyl-psoralen]
- effect on leukemic cells (ability to replicate or induce leukemia in adult mice) [1, 24]: killed the cells
- properties of the [intracellular] Graffi virus [2, 25]: remained unchanged

SMILES: Cc1oc2c(C)c3oc(=O)cc(C)c3cc2c1CN [AMT, 4'-aminomethyl 4,5',8-trimethyl-psoralen]
- effectiveness in photoinactivation compared with TMP [3]: a thousand times more effective than TMP
- photoinactivation of VSV, comparison of derivatives ([3]; 2-3 µg/ml, 0.7 mW/cm^2): superior to HMT and MMT
- light dose response in the inactivation of VSV ([3]; 0.7 mW/cm^2): equivalent with respect to light dose response
- inactivation [4]: 10 -fold
- inactivation ([5]; approximately 5 minutes of irradiation at 1.9 mW/cm^2, 10 µg/ml AMT): 10^8 -fold
- inactivation rates compared with TMP [5, 26]: superior inactivation rates
- inactivation rates compared with TMP [6, 26]: superior inactivation rates
- reduction of infectivity ([7]; 15 minutes irradiation at 9 mW/cm^2, AMT 2.8 x 10^-4 M = 82 ug/ml): > 10^4 -fold
- reduction of viral RNA polymerase activity [8]: 100 -fold
- reduction of viral RNA polymerase activity ([9]; approximately 5 minutes irradiation at 9 mW/cm^2, 8.2 µg/ml AMT): 100 -fold
- effectiveness compared with HMT ([10]; at lower concentrations of the psoralen derivatives, 1.2 mW/cm^2): always more effective than an equal amount of HMT
- photoinactivation [10]: 10^4 -fold
- rate of inactivation compared with equivalent amounts of HMT ([11]; at all psoralen concentrations): more rapidly inactivated
- inactivation ([11]; in 1 minute, 10 µg/ml of AMT): 10 -fold
- time required for a 10^7-fold inactivation [12]: 4 minutes
- effect on translational activity compared with TMP [13]: slightly greater than the effects of TMP
- photoreaction with viral RNA [14]: photoreact only with a single base (cytosine)

SMILES: Cc1oc2c(C)c3oc(=O)cc(C)c3cc2c1CO [HMT, 4'-hydroxymethyl 4,5',8-trimethyl-psoralen]
- effectiveness in photoinactivation compared with TMP [3]: a thousand times more effective than TMP
- light dose response in the inactivation of VSV ([3]; 0.7 mW/cm^2): equivalent with respect to light dose response
- reduction of infectivity ([7]; 20 minutes of irradiation at 9 mW/cm^2, HMT 2.8 x 10^-4 M = 72 µg/ml): 5 -fold
- less effective than AMT in the photoinactivation of influenza virus ([9]; same conditions as AMT (9 mW/cm^2)): about 10 -fold
- photoinactivation [10]: 10^4 -fold
- inactivation [15]: 10^4 -fold
- effect on translational activity compared with TMP [13]: slightly greater than the effects of TMP

SMILES: COCc1c(C)oc2c(C)c3oc(=O)cc(C)c3cc12 [MMT, 4'-methoxymethyl 4,5',8-trimethyl-psoralen]
- effectiveness in photoinactivation compared with TMP [3]: a thousand times more effective than TMP
- light dose response in the inactivation of VSV ([3]; 0.7 mW/cm^2): equivalent with respect to light dose response

SMILES: Cc1cc2cc3c(C)cc(=O)oc3c(C)c2o1 [TMP, 4,5',8-tri-methylpsoralen]
- effectiveness in photoinactivation compared with AMT [5, 27]: more effective
- effectiveness in photoinactivation compared with AMT [6, 27]: more effective
- solubility range [16]: 0 to 1 µg/mL

SMILES: O=c1ccc2cc3ccoc3cc2o1 [psoralen, Psoralen]
- HTLV-III titers [17]: 1 x 10^5 FFU/mL
- infectious HTLV-III recovered [17]: no infectious HTLV-III was recovered
- photoinactivation [18]: photoinactivated
- photoinactivation [19]: photoinactivated
- photoinactivation [20]: photoinactivated
- irradiation resisted by the virus [21]: up to 120 minutes
- irradiation resisted by the virus [22]: up to 120 minutes
- irradiation resisted by the virus [23]: up to 120 minutes
- effect on leukemic cells (ability to replicate or induce leukemia in adult mice) [1]: killed the cells
- properties of the [intracellular] Graffi virus [2]: remained unchanged
- RSV inactivated [15]: approximately 1 x 10^5 FFU/ml
